These compounds were tested against Glycogen synthase kinase-3 beta (Homo sapiens, UniProt P49841) (assay: Inhibition of human recombinant GSK3-beta using gamma[33P]-ATP after 30 mins by scintillation proximity assay).
Chain of Glycogen synthase kinase-3 beta (P49841 whole entry): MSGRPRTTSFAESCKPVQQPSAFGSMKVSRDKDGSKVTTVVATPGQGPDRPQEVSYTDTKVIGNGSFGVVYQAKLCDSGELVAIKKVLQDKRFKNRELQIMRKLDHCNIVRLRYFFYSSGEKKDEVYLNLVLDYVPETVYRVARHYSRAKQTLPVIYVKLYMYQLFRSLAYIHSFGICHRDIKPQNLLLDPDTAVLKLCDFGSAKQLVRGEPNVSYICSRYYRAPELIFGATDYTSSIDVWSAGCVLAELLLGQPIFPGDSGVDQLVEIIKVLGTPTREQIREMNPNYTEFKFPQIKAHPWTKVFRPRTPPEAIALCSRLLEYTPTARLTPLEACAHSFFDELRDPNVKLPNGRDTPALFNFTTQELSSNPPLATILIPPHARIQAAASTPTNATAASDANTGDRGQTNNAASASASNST

Question: With `CCCC(=O)Nc1n[nH]c2cc(Cl)c(-c3ccc(CC)cc3)cc12` as the compound, how does the IC50 read?
Answer: The IC50 was 12 nM.

Question: How did the IC50 turn out when `CCCC(=O)Nc1n[nH]c2cc(Cl)c(-c3ccoc3)cc12` was run?
Answer: The IC50 was 11 nM.

Question: How did the IC50 turn out when `CCCC(=O)Nc1n[nH]c2cc(Cl)c(-c3ccncc3)cc12` was run?
Answer: The IC50 was 50 nM.

Question: For `CCCC(=O)Nc1n[nH]c2cc(-c3ccc(O)cc3)c(-c3ccoc3)cc12`, which IC50 is on record?
Answer: Its IC50 is 98 nM.

Question: `CCCC(=O)Nc1n[nH]c2cc(-c3ccc(Oc4ccccc4)cc3)c(-c3ccc(Oc4ccccc4)cc3)cc12` was tested. Which IC50 did it give?
Answer: Its IC50 is over 10000 nM.

Question: How did the IC50 turn out when `CCCC(=O)Nc1n[nH]c2cc(-c3ccc(SC)cc3)ccc12` was run?
Answer: Its IC50 is 7160 nM.

Question: Which IC50 does the source give for `CCCC(=O)Nc1n[nH]c2cc(Cc3ccccc3)ccc12` here?
Answer: The IC50 was 4140 nM.

Question: For `CCCC(=O)Nc1n[nH]c2cc(-c3ccc(CC)cc3)ccc12`, which IC50 is on record?
Answer: The IC50 was over 100000 nM.

Question: How did the IC50 turn out when `CCCC(=O)Nc1n[nH]c2cc(-c3ccc(C(F)(F)F)cc3)ccc12` was run?
Answer: Its IC50 is 10500 nM.

Question: With `CCCC(=O)Nc1n[nH]c2cc(Cl)ccc12` as the compound, how does the IC50 read?
Answer: The IC50 was 354 nM.

Question: `CCCC(=O)Nc1n[nH]c2cc(-c3ccc(O)c(O)c3)ccc12` was tested. Which IC50 did it give?
Answer: Its IC50 is 27 nM.

Question: For `CCCC(=O)Nc1n[nH]c2cc(-c3ccc(O)cc3)ccc12`, which IC50 is on record?
Answer: The IC50 was 44 nM.

Question: How did the IC50 turn out when `CCCC(=O)Nc1n[nH]c2cc(-c3ccsc3)ccc12` was run?
Answer: Its IC50 is 935 nM.

Question: How did the IC50 turn out when `CCCC(=O)Nc1n[nH]c2cc(-c3ccc(N)nc3)ccc12` was run?
Answer: The IC50 was 1090 nM.

Question: `CCCC(=O)Nc1n[nH]c2cc(-c3ccc4c(c3)COO4)ccc12` was tested. Which IC50 did it give?
Answer: The IC50 was 25000 nM.

Question: How did the IC50 turn out when `CCCC(=O)Nc1n[nH]c2cc(-c3ccc([N+](=O)[O-])cc3)ccc12` was run?
Answer: The IC50 was over 100000 nM.

Question: How did the IC50 turn out when `O=C(O)CCC(=O)Nc1n[nH]c2cc(Cl)ccc12` was run?
Answer: Its IC50 is 1180 nM.

Question: How did the IC50 turn out when `CCCC(=O)Nc1n[nH]c2cc(-c3ccc(F)cc3)ccc12` was run?
Answer: Its IC50 is 5010 nM.

Question: Which IC50 does the source give for `CCCC(=O)Nc1n[nH]c2cc(-c3cc(Cl)cc(Cl)c3)ccc12` here?
Answer: The IC50 was 5410 nM.

Question: For `CCCC(=O)Nc1n[nH]c2cc(-c3ccc(OC(F)(F)F)cc3)ccc12`, which IC50 is on record?
Answer: Its IC50 is 5500 nM.

Question: How did the IC50 turn out when `CCCC(=O)Nc1n[nH]c2cc(CCc3ccccc3)ccc12` was run?
Answer: The IC50 was 8530 nM.

Question: `Cc1ccc(-c2ccc3c(NC(=O)CCC(=O)O)n[nH]c3c2)cc1` was tested. Which IC50 did it give?
Answer: Its IC50 is 17100 nM.

Question: How did the IC50 turn out when `N#Cc1ccc(-c2ccc3c(NC(=O)CCC(=O)O)n[nH]c3c2)cc1` was run?
Answer: The IC50 was 20500 nM.

Question: For `CCCC(=O)Nc1n[nH]c2cc(-c3ccc(N(C)C)cc3)ccc12`, which IC50 is on record?
Answer: The IC50 was 12200 nM.

Question: `CCCC(=O)Nc1n[nH]c2cc(-c3ccc(O)nc3)ccc12` was tested. Which IC50 did it give?
Answer: Its IC50 is 16800 nM.

Question: `CCCC(=O)Nc1n[nH]c2cc(-c3ccc(OCc4ccccc4)cc3)ccc12` was tested. Which IC50 did it give?
Answer: Its IC50 is 1180 nM.

Question: For `CCCC(=O)Nc1n[nH]c2cc(-c3ccccc3)ccc12`, which IC50 is on record?
Answer: The IC50 was 1280 nM.

Question: How did the IC50 turn out when `CCCC(=O)Nc1n[nH]c2cc(-c3ccccc3Cl)ccc12` was run?
Answer: Its IC50 is 1350 nM.

Question: How did the IC50 turn out when `C/C=C/c1ccc2c(NC(=O)CCC)n[nH]c2c1` was run?
Answer: Its IC50 is 2460 nM.

Question: How did the IC50 turn out when `CCCC(=O)Nc1n[nH]c2cc(-c3ccc(OC)cc3)ccc12` was run?
Answer: The IC50 was over 100000 nM.

Question: `CCCC(=O)Nc1n[nH]c2cc(-c3ccc(Cl)cc3)ccc12` was tested. Which IC50 did it give?
Answer: The IC50 was over 100000 nM.

Question: How did the IC50 turn out when `CCCC(=O)Nc1n[nH]c2c(F)c(Cl)c(-c3ccccc3)cc12` was run?
Answer: Its IC50 is 6 nM.

Question: `CCCC(=O)Nc1n[nH]c2cc(-c3ccc(N)cc3)ccc12` was tested. Which IC50 did it give?
Answer: The IC50 was 76 nM.

Question: `CCCC(=O)Nc1n[nH]c2cc(-c3cccc(O)c3)ccc12` was tested. Which IC50 did it give?
Answer: Its IC50 is 94 nM.

Question: With `CCCC(=O)Nc1n[nH]c2cc(C(F)(F)F)ccc12` as the compound, how does the IC50 read?
Answer: Its IC50 is 195 nM.

Question: `CCCC(=O)Nc1n[nH]c2cc(Br)ccc12` was tested. Which IC50 did it give?
Answer: The IC50 was 198 nM.

Question: `CCCC(=O)Nc1n[nH]c2cc(-c3ccoc3)ccc12` was tested. Which IC50 did it give?
Answer: Its IC50 is 260 nM.

Question: With `CCCC(=O)Nc1n[nH]c2cc(-c3ccncc3)ccc12` as the compound, how does the IC50 read?
Answer: Its IC50 is 661 nM.

Question: With `CCCC(=O)Nc1n[nH]c2cc(-c3ccc(O)cc3Cl)ccc12` as the compound, how does the IC50 read?
Answer: The IC50 was 55 nM.

Question: How did the IC50 turn out when `CCCC(=O)Nc1n[nH]c2cc(-c3ccc(O)cc3)c(-c3ccco3)cc12` was run?
Answer: The IC50 was 14 nM.

Question: With `CCCC(=O)Nc1n[nH]c2cc(Cl)c(-c3ccc([N+](=O)[O-])cc3)cc12` as the compound, how does the IC50 read?
Answer: Its IC50 is 18 nM.

Question: Which IC50 does the source give for `CCCC(=O)Nc1n[nH]c2cc(Cl)c(-c3ccc(F)cc3)cc12` here?
Answer: The IC50 was 22 nM.

Question: For `CCCC(=O)Nc1n[nH]c2cc(Cl)c(-c3ccc(OCc4ccccc4)cc3)cc12`, which IC50 is on record?
Answer: The IC50 was 23 nM.

Question: `CCCC(=O)Nc1n[nH]c2cc(-c3ccc(O)cc3)c(-c3cccnc3)cc12` was tested. Which IC50 did it give?
Answer: The IC50 was 149 nM.

Question: How did the IC50 turn out when `CCCC(=O)Nc1n[nH]c2cc(-c3ccc(O)cc3)c(-c3ccc(CC)cc3)cc12` was run?
Answer: Its IC50 is 49 nM.

Question: With `CCCC(=O)Nc1n[nH]c2cc(-c3ccc(O)cc3)c(-c3ccc(O)cc3)cc12` as the compound, how does the IC50 read?
Answer: Its IC50 is 56 nM.

Question: For `CCCC(=O)Nc1n[nH]c2cc(-c3ccc(O)cc3)c(-c3ccccc3)cc12`, which IC50 is on record?
Answer: Its IC50 is 55 nM.

Question: With `CCCC(=O)Nc1n[nH]c2cc(-c3ccccc3)c(-c3ccccc3)cc12` as the compound, how does the IC50 read?
Answer: The IC50 was 1720 nM.

Question: With `CCCC(=O)Nc1n[nH]c2cc(-c3ccc(O)cc3)c(Br)cc12` as the compound, how does the IC50 read?
Answer: The IC50 was 5 nM.

Question: With `CCCC(=O)Nc1n[nH]c2cc(-c3cc(F)cc(F)c3)ccc12` as the compound, how does the IC50 read?
Answer: The IC50 was 2890 nM.

Question: With `CCCC(=O)Nc1n[nH]c2cc(-c3ccc(C(C)(C)C)cc3)ccc12` as the compound, how does the IC50 read?
Answer: Its IC50 is 3810 nM.

Question: Which IC50 does the source give for `CCCC(=O)Nc1n[nH]c2cc(Cl)c(-c3ccccc3)cc12` here?
Answer: The IC50 was 7 nM.

Question: Which IC50 does the source give for `CCCC(=O)Nc1n[nH]c2cc(Cl)c(-c3ccc(N)cc3)cc12` here?
Answer: The IC50 was 8 nM.

Question: `CCCC(=O)Nc1n[nH]c2cc(Cl)c(-c3ccc(O)cc3)cc12` was tested. Which IC50 did it give?
Answer: Its IC50 is 10 nM.

Question: How did the IC50 turn out when `CCCC(=O)Nc1n[nH]c2c(Cl)c(Cl)c(-c3ccccc3)cc12` was run?
Answer: Its IC50 is 12 nM.

Question: How did the IC50 turn out when `CCCC(=O)Nc1n[nH]c2cc(Cl)c(-c3ccc(C)cc3)cc12` was run?
Answer: The IC50 was 14 nM.

Each compound was assayed against Microtubule-associated protein tau (Rattus norvegicus, UniProt P19332) (assay: Inhibition of Tau phosphorylation in rat cerebral cortex after 120 mins by chemiluminescence assay).
Format: tissue-based

Chain of Microtubule-associated protein tau (P19332 whole entry): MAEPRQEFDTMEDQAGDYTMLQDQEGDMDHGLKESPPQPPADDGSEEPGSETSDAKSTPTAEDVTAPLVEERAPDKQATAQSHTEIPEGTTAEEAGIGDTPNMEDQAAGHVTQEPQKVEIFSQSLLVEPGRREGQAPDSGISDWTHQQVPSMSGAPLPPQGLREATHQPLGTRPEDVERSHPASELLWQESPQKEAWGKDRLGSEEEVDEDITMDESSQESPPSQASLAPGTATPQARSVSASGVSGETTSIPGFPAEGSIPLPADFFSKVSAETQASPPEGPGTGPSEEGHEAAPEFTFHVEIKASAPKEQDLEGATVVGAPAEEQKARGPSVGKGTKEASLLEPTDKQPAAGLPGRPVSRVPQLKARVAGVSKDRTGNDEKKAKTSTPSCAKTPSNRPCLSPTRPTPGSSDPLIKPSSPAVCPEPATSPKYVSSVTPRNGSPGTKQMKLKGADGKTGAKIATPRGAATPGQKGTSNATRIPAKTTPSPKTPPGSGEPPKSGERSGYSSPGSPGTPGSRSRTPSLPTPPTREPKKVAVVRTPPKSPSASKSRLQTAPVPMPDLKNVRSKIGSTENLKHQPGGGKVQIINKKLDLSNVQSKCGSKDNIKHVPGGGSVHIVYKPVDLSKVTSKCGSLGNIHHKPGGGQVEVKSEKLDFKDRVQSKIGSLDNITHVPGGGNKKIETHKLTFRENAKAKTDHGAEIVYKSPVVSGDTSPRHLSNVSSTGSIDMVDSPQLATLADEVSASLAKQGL

Question: With `CCCC(=O)Nc1n[nH]c2c(F)c(Cl)c(-c3ccccc3)cc12` as the compound, how does the IC50 read?
Answer: The IC50 was 250 nM.

Question: Which IC50 does the source give for `CCCC(=O)Nc1n[nH]c2cc(Cl)c(-c3ccccc3)cc12` here?
Answer: The IC50 was 400 nM.

What follows are compounds tested against Cyclin-dependent kinase 1 (Homo sapiens, UniProt P06493) (assay: Inhibition of Cdk1).
Chain of Cyclin-dependent kinase 1 (P06493 whole entry): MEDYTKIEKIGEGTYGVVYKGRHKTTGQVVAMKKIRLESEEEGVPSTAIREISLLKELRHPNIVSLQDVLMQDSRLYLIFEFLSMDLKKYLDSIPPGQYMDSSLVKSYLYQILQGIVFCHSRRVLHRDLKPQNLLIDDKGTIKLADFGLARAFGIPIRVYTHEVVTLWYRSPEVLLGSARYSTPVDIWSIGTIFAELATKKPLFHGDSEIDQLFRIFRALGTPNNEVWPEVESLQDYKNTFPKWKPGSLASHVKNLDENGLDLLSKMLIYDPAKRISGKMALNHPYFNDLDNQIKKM

Question: `CCCC(=O)Nc1n[nH]c2c(F)c(Cl)c(-c3ccccc3)cc12` was tested. Which IC50 did it give?
Answer: The IC50 was 2500 nM.

Question: For `CCCC(=O)Nc1n[nH]c2cc(Cl)c(-c3ccccc3)cc12`, which IC50 is on record?
Answer: The IC50 was 100 nM.

Each compound was assayed against Aurora kinase A (Homo sapiens) (UniProt O14965) (assay: Inhibition of Aurora kinase 2).
Chain of Aurora kinase A (Homo sapiens) (O14965 whole entry, looked up): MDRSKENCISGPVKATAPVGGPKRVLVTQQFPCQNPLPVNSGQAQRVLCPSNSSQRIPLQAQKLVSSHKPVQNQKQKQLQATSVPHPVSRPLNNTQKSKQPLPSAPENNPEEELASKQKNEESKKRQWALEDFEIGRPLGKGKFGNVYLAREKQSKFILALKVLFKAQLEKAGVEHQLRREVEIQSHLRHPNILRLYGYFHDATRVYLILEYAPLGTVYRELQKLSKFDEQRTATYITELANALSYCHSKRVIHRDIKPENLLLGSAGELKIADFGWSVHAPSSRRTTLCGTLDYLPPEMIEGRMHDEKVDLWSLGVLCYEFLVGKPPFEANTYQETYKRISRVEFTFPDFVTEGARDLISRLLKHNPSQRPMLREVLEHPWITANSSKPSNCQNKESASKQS

Question: How did the IC50 turn out when `CCCC(=O)Nc1n[nH]c2cc(-c3ccc(O)cc3)ccc12` was run?
Answer: The IC50 was over 30000 nM.

These compounds were tested against Cyclin-dependent kinase 2 (Homo sapiens, UniProt P24941) (assay: not given).

Question: For `CCCC(=O)Nc1n[nH]c2c(F)c(Cl)c(-c3ccccc3)cc12`, which IC50 is on record?
Answer: The IC50 was 3160 nM.

Question: With `CCCC(=O)Nc1n[nH]c2c(Cl)c(Cl)c(-c3ccccc3)cc12` as the compound, how does the IC50 read?
Answer: The IC50 was over 10000 nM.

From ChEMBL document CHEMBL1155393, “Rational design of potent GSK3beta inhibitors with selectivity for Cdk1 and Cdk2” (Bioorg Med Chem Lett, 2010)
